Columns and labels:
AML [1] = experiment: Tipifarnib treatment of previously untreated elderly or unfit AML patients, survival analysed by mRNA expression of FLT3LG/CXCR4; format: in vivo, human
Method: (§1) Previous clinical studies with tipifarnib were performed in newly diagnosed AML in elderly patients with poor risk AML or relapsed and refractory AML. In these studies, patient selection was not based on genetic markers. Anecdotal evidence of tipifarnib single agent activity was reported.

AML [2] = experiment: Tipifarnib treatment of relapsed or refractory AML patients, survival analysed by mRNA expression of FLT3LG/CXCR4; format: in vivo, human
Method: as §1

[3] = highest FLT3LG expression tertile
[4] = second FLT3LG expression tertile
[5] = third tertile (lowest level of FLT3LG expression)
[6] = first three quartiles of FLT3LG expression
[7] = highest FLT3LG tertile and highest CXCR4 tertile (N=10)
[8] = highest quintile of FLT3LG expression
[9] = rest of patients with either lower FLT3LG or lower CXCR4 expression (N=47)

Cn1cncc1[C@@](N)(c1ccc(Cl)cc1)c1ccc2c(c1)c(-c1cccc(Cl)c1)cc(=O)n2C [tipifarnib]
median overall survival (mOS) (AML [1]; [3]): 548 days
median progression free survival (mPFS) (AML [1]; [3]): 247 days
median overall survival (mOS) (AML [1]; [4]): 153 days
median progression free survival (mPFS) (AML [1]; [4]): 64 days
median overall survival (mOS) (AML [1]; [5]): 76 days
median progression free survival (mPFS) (AML [1]; [5]): 35 days
median overall survival (mOS) (AML [2]; [6]): 54 to 83 days
median progression free survival (mPFS) (AML [2]; [6]): 28 to 29 days
median overall survival (mOS) (AML [2]; [7]): 234 days
median progression free survival (mPFS) (AML [2]; [7]): 148 days
median overall survival (mOS) (AML [2]; [8]): 234 days
median progression free survival (mPFS) (AML [2]; [8]): 119 days
median overall survival (mOS) (AML [2]; [9]): 84 days
median progression free survival (mPFS) (AML [2]; [9]): 29 days
